≈ marks a conversion by molar mass, not a printed value. No end group written: not given here.
Columns and labels:
[1] = tested on: A. baumannii isolate C-8.1-2; test: Disk diffusion test (CLSI), antibiotic susceptibility profile; type: cell-based, Acinetobacter baumannii; conditions: CLSI breakpoints
Description: (§1) ^aAntibiotic susceptibility profile of all isolated strains was evaluated by disk diffusion test, using the standard protocol guide of the Clinical and Laboratory Standards Institute (CLSI), and interpreted as S: Susceptible to standard dosing regimen; I: Intermediate; R: Resistant (in accordance with the criteria of CLST breakpoints).

[2] = tested on: A. baumannii isolate B-8.1-1; test: as above; type: cell-based, Acinetobacter baumannii; conditions: CLSI breakpoints
Description: as §1

[3] = tested on: A. baumannii isolate D-10.1-2; test: as above; type: cell-based, Acinetobacter baumannii; conditions: CLSI breakpoints
Description: as §1

[4] = tested on: A. baumannii isolate C-8.2-1; test: as above; type: cell-based, Acinetobacter baumannii; conditions: CLSI breakpoints
Description: as §1

[5] = tested on: A. baumannii isolate B-8.1-2; test: as above; type: cell-based, Acinetobacter baumannii; conditions: CLSI breakpoints
Description: as §1

[6] = tested on: A. baumannii isolate B-8.2-2; test: as above; type: cell-based, Acinetobacter baumannii; conditions: CLSI breakpoints
Description: as §1

[7] = tested on: A. baumannii isolate D-10.1-1; test: as above; type: cell-based, Acinetobacter baumannii; conditions: CLSI breakpoints
Description: as §1

[8] = tested on: A. baumannii isolate A-8.2-1; test: as above; type: cell-based, Acinetobacter baumannii; conditions: CLSI breakpoints
Description: as §1

A. baumannii ATCC 19,606 = test: microbe, parasite or virus in culture; type: cell-based, Acinetobacter baumannii; conditions: for MBC: ATCC19
Description: (§2) Ten strains of both Gram-positive and -negative bacteria, including Staphylococcus aureus ATCC 25,923, S. epidermidis ATCC 12,228, Bacillus cereus ATCC 11,778, Listeria monocytogenes 10403S, Salmonella typhimurium ATCC 13,311, Pseudomonas aeruginosa ATCC 27,853, Shigella sonnei ATCC 11,060, A. baumannii ATCC 19,606, Escherichia coli ATCC 25,922 and E. coli O157:H7, were used in this study. Eight clinical isolates of multidrug-resistant (MDR) and extensively drug-resistant (XDR) A. baumannii, isolated from human (blood, sputum, respiratory sample, sterile site sample and urine), were kindly provided by Asst. Prof. Dr. Sakawrat Kanthawong (Faculty of Medicine, Khon Kaen University, Thailand) (Table S1). All bacterial strains, excluding L. monocytogenes 10403S and E. coli, were cultured in tryptic soy broth (TSB). L. monocytogenes was grown in TSB supplemented with 0.6% yeast extract (TSB-YE), and E. coli was cultured in Luria broth (LB). All of bacteria were cultured at 37 °C with continuous shaking at 220 rpm.
(§3) Minimum inhibitory concentration (MIC) of peptides and antibiotics was assessed by a modified version of the broth microdilution method from the Clinical and Laboratory Standards Institute (CLSI) as previously described. In brief, mid-log phase growths of microbial strains were cultured in Müeller-Hinton broth (MHB) with an initial inoculum of 2–8 × 10^5 CFU/mL. Bacteria suspensions were incubated in sterile 96-well plates with test agents at desired concentrations. […] Minimum bactericidal concentration (MBC) determination was performed using a modified version of the colony count assay. In brief, fifty µl of all non-turbid wells from MIC experiments were spread on agar plates. The MBC value was defined as the lowest concentration of peptides with no colony growth on the plate. All assays were performed in triplicate.

[9] = tested on: A. baumannii C-8.2–1 (XDR); test: microbe, parasite or virus in culture; type: cell-based, Acinetobacter baumannii; conditions: Acinetobacter baumannii
Description: as §2, §3

[10] = tested on: A. baumannii B-8.1–1 (MDR); test: microbe, parasite or virus in culture; type: cell-based, Acinetobacter baumannii; conditions: Acinetobacter baumannii
Description: as §2, §3

[11] = tested on: A. baumannii A-8.2–1 (XDR); test: microbe, parasite or virus in culture; type: cell-based, Acinetobacter baumannii; conditions: Acinetobacter baumannii
Description: as §2, §3

[12] = tested on: A. baumannii C-8.1–2 (MDR); test: microbe, parasite or virus in culture; type: cell-based, Acinetobacter baumannii; conditions: Acinetobacter baumannii
Description: as §2, §3

[13] = tested on: A. baumannii B-8.2–2 (XDR); test: microbe, parasite or virus in culture; type: cell-based, Acinetobacter baumannii; conditions: Acinetobacter baumannii
Description: as §2, §3

[14] = tested on: A. baumannii B-8.1–2 (MDR); test: microbe, parasite or virus in culture; type: cell-based, Acinetobacter baumannii; conditions: Acinetobacter baumannii
Description: as §2, §3

[15] = tested on: Shigella sonnei ATCC 11,060; type: cell-based; conditions: S. sonnei ATCC 11,060; broth microdilution, MHB, 24 h, 37 °C, triplicate
Description: as §2, §3

[16] = tested on: Staphylococcus epidermidis ATCC 12,228; type: cell-based; conditions: S. epidermidis ATCC 12,228; broth microdilution, MHB, 24 h, 37 °C, triplicate
Description: as §2, §3

[17] = tested on: Pseudomonas aeruginosa ATCC 27,853; type: cell-based; conditions: P. aeruginosa ATCC 27,853; broth microdilution, MHB, 24 h, 37 °C, triplicate
Description: as §2, §3

[18] = tested on: Staphylococcus aureus ATCC 25,923; type: cell-based; conditions: S. aureus ATCC 25,923; broth microdilution, MHB, 24 h, 37 °C, triplicate
Description: as §2, §3

[19] = tested on: Salmonella Typhimurium ATCC 13,311; type: cell-based; conditions: S. Typhimurium ATCC 13,311; broth microdilution, MHB, 24 h, 37 °C, triplicate
Description: as §2, §3

[20] = tested on: Escherichia coli ATCC 25,922; type: cell-based; conditions: E. coli ATCC 25,922; broth microdilution, MHB, 24 h, 37 °C, triplicate
Description: as §2, §3

[21] = tested on: Listeria monocytogenes 10403S; type: cell-based; conditions: L. monocytogenes 10403S; broth microdilution, MHB, 24 h, 37 °C, triplicate
Description: as §2, §3

[22] = tested on: Bacillus cereus ATCC 11,778; type: cell-based; conditions: B. cereus ATCC 11,778; broth microdilution, MHB, 24 h, 37 °C, triplicate
Description: as §2, §3

[23] = tested on: Escherichia coli O157:H7 MT strain; type: cell-based; conditions: E. coli O157:H7 MT strain; broth microdilution, MHB, 24 h, 37 °C, triplicate
Description: as §2, §3

[24] = Acinetobacter baumannii, ATCC19, 24 h
[25] = A. baumannii ATCC 19,606, broth microdilution (modified CLSI), MHB, 2–8 × 10^5 CFU/mL, 24 h, 37 °C, triplicate

Molecule	Antibiotic susceptibility profile [1]	Antibiotic susceptibility profile [2]	Antibiotic susceptibility profile [3]	Antibiotic susceptibility profile [4]	Antibiotic susceptibility profile [5]	Antibiotic susceptibility profile [6]	Antibiotic susceptibility profile [7]	Antibiotic susceptibility profile [8]	MIC (A. baumannii ATCC 19,606; [25]) [µg/mL]	MIC [15] [µg/mL]	MIC [16] [µg/mL]	MIC [17] [µg/mL]	MIC [18] [µg/mL]	MIC [19] [µg/mL]	MIC [20] [µg/mL]	MIC [21] [µg/mL]	MIC [22] [µg/mL]	MIC [23] [µg/mL]	other results
CC1(C)S[C@@H]2[C@H](NC(=O)[C@H](N)c3ccccc3)C(=O)N2[C@H]1C(=O)O [Amp, Ampicillin]	R	R	R	R	R	R	R	R	–	–	–	–	–	–	–	–	–	–	–
CC(C)(O/N=C(\C(=O)N[C@@H]1C(=O)N2C(C(=O)[O-])=C(C[n+]3ccccc3)CS[C@H]12)c1csc(N)n1)C(=O)O [Caz, Ceftazidime]	I	S	I	R	R	R	R	R	–	–	–	–	–	–	–	–	–	–	–
CNC(C)C1CCC(N)C(OC2C(N)CC(N)C(OC3OCC(C)(O)C(NC)C3O)C2O)O1 (stereo not shown) [Gen, Gentamicin]	R	I	I	R	R	R	R	R	–	–	–	–	–	–	–	–	–	–	–
C[C@H]1COc2c(N3CCN(C)CC3)c(F)cc3c(=O)c(C(=O)O)cn1c23 [Levofloxacin]	R	S	R	R	R	R	I	R	–	–	–	–	–	–	–	–	–	–	MBC (A. baumannii ATCC 19,606; Acinetobacter baumannii): ≤ 0.49 µg/mL; MIC (A. baumannii ATCC 19,606; [24]): ≤ 0.49 µg/mL; MBC [9]: 7.81 µg/mL (≈ 21.6 µM); MIC [9]: 3.91 µg/mL (≈ 10.8 µM); MBC [10]: 1.95 µg/mL (≈ 5.4 µM); MIC [10]: ≤ 0.49 µg/mL; MBC [11]: 3.91 µg/mL (≈ 10.8 µM); MIC [11]: 3.91 µg/mL (≈ 10.8 µM); MBC [12]: 31.2 µg/mL (≈ 86.5 µM); MIC [12]: 31.2 µg/mL (≈ 86.5 µM); MBC [13]: 7.81 µg/mL (≈ 21.6 µM); MIC [13]: 7.81 µg/mL (≈ 21.6 µM); MBC [14]: 250 µg/mL (≈ 692 µM); MIC [14]: 125 µg/mL (≈ 346 µM)
CN(C)c1ccc(O)c2c1C[C@H]1C[C@H]3[C@H](N(C)C)C(O)=C(C(N)=O)C(=O)[C@@]3(O)C(O)=C1C2=O [Minocycline]	–	–	–	–	–	–	–	–	–	–	–	–	–	–	–	–	–	–	MBC (A. baumannii ATCC 19,606; Acinetobacter baumannii): 1.95 µg/mL (≈ 4.26 µM); MIC (A. baumannii ATCC 19,606; [24]): ≤ 0.49 µg/mL; MBC [9]: 31.2 µg/mL (≈ 68.3 µM); MIC [9]: 1.95 µg/mL (≈ 4.26 µM); MBC [10]: 7.81 µg/mL (≈ 17.1 µM); MIC [10]: ≤ 0.49 µg/mL; MBC [11]: 31.2 µg/mL (≈ 68.3 µM); MIC [11]: 0.98 µg/mL (≈ 2.14 µM); MBC [12]: 31.2 µg/mL (≈ 68.3 µM); MIC [12]: 3.91 µg/mL (≈ 8.55 µM); MBC [13]: 31.2 µg/mL (≈ 68.3 µM); MIC [13]: 3.91 µg/mL (≈ 8.55 µM); MBC [14]: 15.6 µg/mL (≈ 34.2 µM); MIC [14]: 0.98 µg/mL (≈ 2.14 µM)
RLFRRVKKVAGK-NH2 [AP12]	–	–	–	–	–	–	–	–	> 250	250	250	> 250	> 250	125	125	125	> 250	250	–
RLFRRVKKVAGKI-NH2 [AP13]	–	–	–	–	–	–	–	–	> 250	125	62.5	> 250	> 250	62.5	125	62.5	> 250	250	–
RLFRRVKKVAGKIA-NH2 [AP14]	–	–	–	–	–	–	–	–	> 250	125	31.25	250	> 250	62.5	125	62.5	> 250	250	–
RLFRRVKKVAGKIAK-NH2 [AP15]	–	–	–	–	–	–	–	–	62.5	62.5	15.63	125	250	31.25	31.25	31.25	> 250	62.5	–
RLFRRVKKVAGKIAKR-NH2 [AP16]	–	–	–	–	–	–	–	–	62.5	15.63	7.81	62.5	125	15.63	31.25	15.63	250	125	–
RLFRRVKKVAGKIAKRI-NH2 [AP17]	–	–	–	–	–	–	–	–	31.25	7.81	7.81	15.63	62.5	7.81	15.63	7.81	62.5	125	–
RLFRRVKKVAGKIAKRIW-NH2 [AP18]	–	–	–	–	–	–	–	–	7.81	3.91	3.91	3.91	7.81	3.91	7.81	3.91	7.81	15.63	–

Reference: article PMC9508196 (Scientific Reports, 2022)
